Results as given in ChEMBL document CHEMBL5303573, “Mapping human microbiome drug metabolism by gut bacteria and their genes” (Nature, 2019).

Legend:
[1] = The drug is tested on Blautia hansenii strain: DSM20583 for biotransformation. The drug concentrations were measured before and after a 12-h incubation by liquid-chromatography-coupled mass spectrometry (LC–MS); conditions: 2 µM
[2] = The drug is tested on Bacteroides caccae strain: ATCC43185 for biotransformation. The drug concentrations were measured before and after a 12-h incubation by liquid-chromatography-coupled mass spectrometry (LC–MS); conditions: 2 µM
[3] = bacteroides thetaiotaomicron, 12 h, 2 µM
Description: The drug is tested on Bacteroides thetaiotaomicron strain: VPI-5482 for biotransformation. The drug concentrations were measured before and after a 12-h incubation by liquid-chromatography-coupled mass spectrometry (LC–MS)

[4] = The drug is tested on Anaerococcus hydrogenalis strain: DSM7454 for biotransformation. The drug concentrations were measured before and after a 12-h incubation by liquid-chromatography-coupled mass spectrometry (LC–MS); conditions: 2 µM
[5] = The drug is tested on Enterococcus faecalis strain: V583 for biotransformation. The drug concentrations were measured before and after a 12-h incubation by liquid-chromatography-coupled mass spectrometry (LC–MS); conditions: 2 µM
[6] = enterocloster bolteae, 12 h, 2 µM
Description: The drug is tested on Clostridium bolteae strain: ATCCBAA-613 for biotransformation. The drug concentrations were measured before and after a 12-h incubation by liquid-chromatography-coupled mass spectrometry (LC–MS)

[7] = The drug is tested on Enterobacter cancerogenus strain: ATCC35316 for biotransformation. The drug concentrations were measured before and after a 12-h incubation by liquid-chromatography-coupled mass spectrometry (LC–MS); conditions: 2 µM
[8] = The drug is tested on Parabacteroides merdae strain: ATCC43184 for biotransformation. The drug concentrations were measured before and after a 12-h incubation by liquid-chromatography-coupled mass spectrometry (LC–MS); conditions: 2 µM
[9] = The drug is tested on Bacteroides ovatus strain: ATCC8483 for biotransformation. The drug concentrations were measured before and after a 12-h incubation by liquid-chromatography-coupled mass spectrometry (LC–MS); conditions: 2 µM
[10] = The drug is tested on Eubacterium ventriosum strain: ATCC27560 for biotransformation. The drug concentrations were measured before and after a 12-h incubation by liquid-chromatography-coupled mass spectrometry (LC–MS); type: ADME; design: dose 2 uM, timepoint 0 vs 12 hours; conditions: 2 µM
[11] = The drug is tested on Clostridium ramosum strain: DSM1402 for biotransformation. The drug concentrations were measured before and after a 12-h incubation by liquid-chromatography-coupled mass spectrometry (LC–MS); conditions: thomasclavelia ramosa, 2 µM
[12] = The drug is tested on Clostridium symbiosum strain: ATCC14940 for biotransformation. The drug concentrations were measured before and after a 12-h incubation by liquid-chromatography-coupled mass spectrometry (LC–MS); conditions: 2 µM
[13] = The drug is tested on Dorea formicigenerans strain: ATCC27755 for biotransformation. The drug concentrations were measured before and after a 12-h incubation by liquid-chromatography-coupled mass spectrometry (LC–MS); conditions: 2 µM
[14] = The drug is tested on Bifidobacterium breve strain: DSM20213 for biotransformation. The drug concentrations were measured before and after a 12-h incubation by liquid-chromatography-coupled mass spectrometry (LC–MS); conditions: 2 µM
[15] = bacteroides thetaiotaomicron, 12 h, 2 µM; remark: listed apart in the source
Description: The drug is tested on Bacteroides thetaiotaomicron strain: 7330 for biotransformation. The drug concentrations were measured before and after a 12-h incubation by liquid-chromatography-coupled mass spectrometry (LC–MS)

[16] = The drug is tested on Clostridium scindens strain: ATCC35704 for biotransformation. The drug concentrations were measured before and after a 12-h incubation by liquid-chromatography-coupled mass spectrometry (LC–MS); conditions: 2 µM
[17] = The drug is tested on Bacteroides finegoldii strain: DSM17565 for biotransformation. The drug concentrations were measured before and after a 12-h incubation by liquid-chromatography-coupled mass spectrometry (LC–MS); conditions: 2 µM
[18] = The drug is tested on Eubacterium hallii strain: DSM3353 for biotransformation. The drug concentrations were measured before and after a 12-h incubation by liquid-chromatography-coupled mass spectrometry (LC–MS); conditions: anaerobutyricum hallii, 2 µM
[19] = The drug is tested on Bacteroides fragilis strain: HMW615 for biotransformation. The drug concentrations were measured before and after a 12-h incubation by liquid-chromatography-coupled mass spectrometry (LC–MS); conditions: 2 µM
[20] = The drug is tested on Bacteroides fragilis strain: ATCC43859 for biotransformation. The drug concentrations were measured before and after a 12-h incubation by liquid-chromatography-coupled mass spectrometry (LC–MS); conditions: 2 µM

SMILES | Bacterial Biotransformation [1] | Bacterial Biotransformation [2] | Bacterial Biotransformation [3] | Bacterial Biotransformation [4] | Bacterial Biotransformation [5] | Bacterial Biotransformation [6] | Bacterial Biotransformation [7] | Bacterial Biotransformation [8] | Bacterial Biotransformation [9] | Bacterial Biotransformation [10] | Bacterial Biotransformation [11] | Bacterial Biotransformation [12] | Bacterial Biotransformation [13] | Bacterial Biotransformation [14] | Bacterial Biotransformation [15] | Bacterial Biotransformation [16] | Bacterial Biotransformation [17] | Bacterial Biotransformation [18] | Bacterial Biotransformation [19] | Bacterial Biotransformation [20]
Cc1nc(Nc2ncc(C(=O)Nc3c(C)cccc3Cl)s2)cc(N2CCN(CCO)CC2)n1.O [DASATINIB] | Compound metabolized | Compound NOT metabolized | Compound NOT metabolized | Compound NOT metabolized | Compound NOT metabolized | Compound metabolized | Compound NOT metabolized | Compound NOT metabolized | Compound NOT metabolized | Compound NOT metabolized | Compound NOT metabolized | Compound NOT metabolized | Compound NOT metabolized | Compound NOT metabolized | Compound NOT metabolized | Compound metabolized | Compound metabolized |  |  | 
OC(Cn1cncn1)(Cn1cncn1)c1ccc(F)cc1F [FLUCONAZOLE] | Compound metabolized | Compound NOT metabolized | Compound metabolized | Compound NOT metabolized | Compound NOT metabolized | Compound NOT metabolized | Compound NOT metabolized | Compound NOT metabolized | Compound metabolized | Compound NOT metabolized | Compound NOT metabolized | Compound metabolized | Compound metabolized | Compound NOT metabolized | Compound metabolized | Compound metabolized | Compound NOT metabolized |  |  | 
COC(=O)Nc1nc2ccc(C(=O)c3ccccc3)cc2[nH]1 [MEBENDAZOLE] | Compound metabolized | Compound NOT metabolized | Compound metabolized | Compound NOT metabolized | Compound NOT metabolized | Compound NOT metabolized | Compound NOT metabolized | Compound NOT metabolized | Compound NOT metabolized | Compound NOT metabolized | Compound NOT metabolized | Compound NOT metabolized | Compound NOT metabolized | Compound NOT metabolized |  | Compound NOT metabolized |  | Compound NOT metabolized |  | 
COc1ccccc1N1CCN(CC(O)COc2cccc3ccccc23)CC1 (stereo not given) [NAFTOPIDIL] | Compound NOT metabolized | Compound NOT metabolized | Compound NOT metabolized | Compound NOT metabolized | Compound NOT metabolized | Compound NOT metabolized | Compound NOT metabolized | Compound NOT metabolized | Compound NOT metabolized | Compound NOT metabolized | Compound NOT metabolized | Compound NOT metabolized | Compound NOT metabolized | Compound NOT metabolized | Compound NOT metabolized | Compound NOT metabolized | Compound NOT metabolized | Compound NOT metabolized |  | 
CCc1nn(CCCN2CCN(c3cccc(Cl)c3)CC2)c(=O)n1CCOc1ccccc1 [NEFAZODONE] | Compound NOT metabolized | Compound NOT metabolized | Compound NOT metabolized | Compound NOT metabolized | Compound NOT metabolized | Compound NOT metabolized | Compound NOT metabolized | Compound NOT metabolized | Compound NOT metabolized | Compound NOT metabolized | Compound NOT metabolized | Compound NOT metabolized | Compound NOT metabolized | Compound NOT metabolized | Compound NOT metabolized | Compound NOT metabolized |  |  | Compound NOT metabolized | 
C#C[C@]1(OC(C)=O)CC[C@H]2[C@@H]3CCC4=CC(=O)CC[C@@H]4[C@H]3CC[C@@]21C [NORETHINDRONE ACETATE] | Compound metabolized | Compound metabolized | Compound metabolized | Compound NOT metabolized | Compound NOT metabolized | Compound metabolized |  | Compound metabolized | Compound metabolized | Compound metabolized | Compound NOT metabolized | Compound metabolized | Compound NOT metabolized | Compound NOT metabolized | Compound metabolized | Compound NOT metabolized | Compound metabolized | Compound metabolized | Compound metabolized | Compound metabolized
NC(=O)N1c2ccccc2CC(=O)c2ccccc21 [OXCARBAZEPINE] | Compound NOT metabolized | Compound NOT metabolized |  | Compound NOT metabolized | Compound NOT metabolized | Compound NOT metabolized | Compound metabolized | Compound NOT metabolized | Compound NOT metabolized | Compound metabolized | Compound metabolized | Compound metabolized | Compound metabolized | Compound NOT metabolized |  | Compound metabolized | Compound NOT metabolized | Compound NOT metabolized |  | 
CCN(CC)CC#CCOC(=O)C(O)(c1ccccc1)C1CCCCC1.Cl (stereo not given) [OXYBUTYNIN CHLORIDE] | Compound metabolized | Compound NOT metabolized | Compound NOT metabolized | Compound NOT metabolized | Compound metabolized |  | Compound NOT metabolized | Compound NOT metabolized | Compound NOT metabolized | Compound metabolized |  | Compound metabolized | Compound metabolized | Compound NOT metabolized | Compound NOT metabolized | Compound NOT metabolized |  | Compound NOT metabolized |  | 
CC(=O)CCCCn1c(=O)c2c(ncn2C)n(C)c1=O [PENTOXIFYLLINE] | Compound NOT metabolized | Compound NOT metabolized | Compound NOT metabolized | Compound NOT metabolized | Compound NOT metabolized |  | Compound NOT metabolized | Compound NOT metabolized | Compound NOT metabolized | Compound NOT metabolized |  | Compound NOT metabolized | Compound NOT metabolized | Compound NOT metabolized | Compound NOT metabolized |  |  | Compound NOT metabolized |  | Compound NOT metabolized
